In patent US10689354B2, “Aminoazole derivative” (Teijin Pharma Limited, priority 2015, dated 2020):

target: T1, androgen receptor (AR-LBD) (Rattus norvegicus, UniProt P15207); test: Evaluation of androgen receptor affinity (PolarScreen Androgen Receptor Competitor Assay Kit, Red; fluorescence polarization); conditions: 22° C. for 5 hours, relative to binding rate of 1 μM DHT, read-out: AR affinity (pEC50) (converted)
T1 construct: 5 μL of 2×AR-LBD/Fluoromone AL Red Complex contained in the kit; purchased Invitrogen
T1 sequence (P15207 651-882 limits assumed): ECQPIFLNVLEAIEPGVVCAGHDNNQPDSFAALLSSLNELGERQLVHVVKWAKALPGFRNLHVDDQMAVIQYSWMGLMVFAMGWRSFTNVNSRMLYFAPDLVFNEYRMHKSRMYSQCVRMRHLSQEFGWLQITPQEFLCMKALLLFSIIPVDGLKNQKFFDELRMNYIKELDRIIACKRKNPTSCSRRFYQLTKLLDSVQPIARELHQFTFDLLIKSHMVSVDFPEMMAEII
How it was run: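 pEC50 values reflect tracer displacement from AR-LBD (Fluoromone AL Red complex) measured by fluorescence polarization after 5 h at 22° C, normalized to 1 μM DHT and fitted with a 4-parameter model.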

**Q.** How did the EC50 turn out when COc1cccc(N(Cc2ccccc2)c2nc(C(=O)NS(C)(=O)=O)c(C)s2)c1 [Example 204, 2-(N-benzyl-3-methoxy-anilino)-5-methyl-N-methylsulfonyl-thiazole-4-carboxamide] was run?
**A.** Its EC50 is > 2000 nM.

**Q.** With Cc1sc(N(Cc2ccccc2)c2ccccc2F)nc1C(=O)NS(C)(=O)=O [Compound 30, 2-(N-benzyl-2-fluoro-anilino)-5-methyl-N-methylsulfonyl-thiazole-4-carboxamide] as the compound, how does the EC50 read?
**A.** Its EC50 is > 2000 nM.

**Q.** How did the EC50 turn out when Cc1sc(N(Cc2ccc(OCCN3CCOCC3)cc2)c2ccc(C#N)cc2)nc1C(=O)NS(C)(=O)=O [Compound 572, 2-[4-cyano-N-[[4-(2-morpholinoethoxy)phenyl]methyl]anilino]-5-methyl-N-methylsulfonyl-thiazole-4-carboxamide] was run?
**A.** The EC50 was 1580 nM.

**Q.** Cc1sc(N(Cc2ccccc2)c2cccc(CCOCc3ccccc3)c2)nc1C(=O)NS(C)(=O)=O [Example 231, 2-[N-benzyl-3-(2-benzyloxyethyl)anilino]-5-methyl-N-methylsulfonyl-thiazole-4-carboxamide] was tested. Which EC50 did it give?
**A.** The EC50 was > 2000 nM.

**Q.** Which EC50 does the source give for Cc1sc(N(C[C@H]2CCC[C@@H](CO)C2)c2ccc(C(F)(F)F)cc2)nc1C(=O)NS(C)(=O)=O (racemic) [Compound 348, 2-[N-[[cis-3-(hydroxymethyl)cyclohexyl]methyl]-4-(trifluoromethyl)anilino]-5-methyl-N-methylsulfonyl-thiazole-4-carboxamide] here?
**A.** The EC50 was 1260 nM.

**Q.** With Cc1sc(N(Cc2ccccc2)c2ccc(S(C)(=O)=O)cc2)nc1C(=O)NS(C)(=O)=O [Example 261, 2-(N-benzyl-4-methylsulfonyl-anilino)-5-methyl-N-methylsulfonyl-thiazole-4-carboxamide] as the compound, how does the EC50 read?
**A.** Its EC50 is 1260 nM.

**Q.** For Cc1sc(N(C[C@H]2CC[C@H](O)CC2)c2ccc(C#N)cc2)nc1C(=O)NS(C)(=O)=O [Compound 354, 2-[4-cyano-N-[(trans-4-hydroxycyclohexyl)methyl]anilino]-5-methyl-N-methylsulfonyl-thiazole-4-carboxamide], which EC50 is on record?
**A.** The EC50 was > 2000 nM.

**Q.** With Cc1sc(N(CCC2CCCN2C)c2ccc(C#N)cc2)nc1C(=O)NS(C)(=O)=O (centres unmarked) [Compound 481, 2-[4-cyano-N-[2-(1-methylpyrrolidin-2-yl)ethyl]anilino]-5-methyl-N-methylsulfonyl-thiazole-4-carboxamide] as the compound, how does the EC50 read?
**A.** Its EC50 is > 2000 nM.

**Q.** With Cc1sc(N(Cc2ccc(OCC(=O)N3CCOCC3)cc2)c2ccc(C#N)cc2)nc1C(=O)NS(C)(=O)=O [Compound 573, 2-[4-cyano-N-[[4-(2-morpholino-2-oxo-ethoxy)phenyl]methyl]anilino]-5-methyl-N-methylsulfonyl-thiazole-4-carboxamide] as the compound, how does the EC50 read?
**A.** Its EC50 is 1260 nM.

**Q.** How did the EC50 turn out when Cc1sc(N(Cc2ccccc2)c2cccc(F)c2)nc1C(=O)NS(C)(=O)=O [Compound 29, 2-(N-benzyl-3-fluoro-anilino)-5-methyl-N-methylsulfonyl-thiazole-4-carboxamide] was run?
**A.** The EC50 was > 2000 nM.

**Q.** Which EC50 does the source give for Cc1sc(N(Cc2ccccc2)C2CCCC2)nc1C(=O)NS(C)(=O)=O [Compound 669, 2-[benzyl(cyclopentyl)amino]-5-methyl-N-methylsulfonyl-thiazole-4-carboxamide] here?
**A.** Its EC50 is 631 nM.

**Q.** How did the EC50 turn out when Cc1sc(N(C[C@H]2CC[C@@H](O)CC2)c2ccc(C#N)cc2)nc1C(=O)NS(C)(=O)=O [Compound 353, 2-[4-cyano-N-[(cis-4-hydroxycyclohexyl)methyl]anilino]-5-methyl-N-methylsulfonyl-thiazole-4-carboxamide] was run?
**A.** The EC50 was > 2000 nM.

**Q.** With Cc1sc(N(Cc2ccccc2)c2ccccc2CO)nc1C(=O)NS(C)(=O)=O [Compound 606, 2-[N-benzyl-2-(hydroxymethyl)anilino]-5-methyl-N-methylsulfonyl-thiazole-4-carboxamide] as the compound, how does the EC50 read?
**A.** The EC50 was > 2000 nM.

**Q.** Cc1sc(N(CC(=O)C(C)(C)C)c2ccc(C#N)cc2)nc1C(=O)NS(C)(=O)=O [Compound 63, 2-(4-cyano-N-(3,3-dimethyl-2-oxo-butyl)anilino)-5-methyl-N-methylsulfonyl-thiazole-4-carboxamide] was tested. Which EC50 did it give?
**A.** The EC50 was > 2000 nM.

**Q.** For Cc1sc(N(Cc2ccccc2)c2cc3ccccc3cn2)nc1C(=O)NS(C)(=O)=O [Compound 745, 2-[benzyl(3-isoquinolyl)amino]-5-methyl-N-methylsulfonyl-thiazole-4-carboxamide], which EC50 is on record?
**A.** The EC50 was > 2000 nM.

**Q.** With Cc1sc(N(CCc2ccc(C(=O)O)cc2)Cc2ccccc2)nc1C(=O)NS(C)(=O)=O [Compound 328, 4-[2-[benzyl-[5-methyl-4-(methylsulfonylcarbamoyl)thiazol-2-yl]amino]ethyl]benzoic acid] as the compound, how does the EC50 read?
**A.** Its EC50 is > 2000 nM.

**Q.** Which EC50 does the source give for Cc1sc(N(Cc2ccccc2)c2ccc(C#N)nc2)nc1C(=O)NS(C)(=O)=O [Compound 604, 2-[benzyl-(6-cyano-3-pyridyl)amino]-5-methyl-N-methylsulfonyl-thiazole-4-carboxamide] here?
**A.** The EC50 was > 2000 nM.

**Q.** With Cc1sc(N(Cc2ccccc2)CC2(c3ccccc3)CC2)nc1C(=O)NS(C)(=O)=O [Example 304, 2-[benzyl-[(1-phenylcyclopropyl)methyl]amino]-5-methyl-N-methylsulfonyl-thiazole-4-carboxamide] as the compound, how does the EC50 read?
**A.** Its EC50 is > 2000 nM.

**Q.** With Cc1sc(N(Cc2ccccc2CO)c2ccc(C#N)cc2)nc1C(=O)NS(C)(=O)=O [Compound 355, 2-[4-cyano-N-[[2-(hydroxymethyl)phenyl]methyl]anilino]-5-methyl-N-methylsulfonyl-thiazole-4-carboxamide] as the compound, how does the EC50 read?
**A.** The EC50 was 501 nM.

**Q.** Cc1oc(N(Cc2ccc(C#N)cc2)c2ccc(C#N)cc2)nc1C(=O)NS(C)(=O)=O [Compound 615, 2-[4-cyano-N-[(4-cyanophenyl)methyl]anilino]-5-methyl-N-methylsulfonyl-oxazole-4-carboxamide] was tested. Which EC50 did it give?
**A.** The EC50 was 398 nM.

**Q.** With Cc1sc(N(CCc2ccc3ccccc3c2)Cc2ccccc2)nc1C(=O)NS(C)(=O)=O [Example 312, 2-[benzyl-[2-(2-naphthyl)ethyl]amino]-5-methyl-N-methylsulfonyl-thiazole-4-carboxamide] as the compound, how does the EC50 read?
**A.** Its EC50 is 631 nM.

**Q.** With Cc1sc(N(CCc2ccc(O)cc2)c2ccc(C#N)cc2)nc1C(=O)NS(C)(=O)=O [Compound 62, 2-[4-cyano-N-[2-(4-hydroxyphenyl)ethyl]anilino]-5-methyl-N-methylsulfonyl-thiazole-4-carboxamide] as the compound, how does the EC50 read?
**A.** Its EC50 is 1580 nM.

**Q.** For Cc1sc(N(Cc2ccccc2)CC2CCCCC2)nc1C(=O)NS(C)(=O)=O [Compound 668, 2-[benzyl(cyclohexylmethyl)amino]-5-methyl-N-methylsulfonyl-thiazole-4-carboxamide], which EC50 is on record?
**A.** The EC50 was > 2000 nM.

**Q.** How did the EC50 turn out when Cc1sc(N(Cc2ccc(C(F)(F)F)cc2C(F)(F)F)c2ccc(C#N)cc2)nc1C(=O)NS(C)(=O)=O [Compound 414, 2-[N-[[2,4-bis(trifluoromethyl)phenyl]methyl]-4-cyano-anilino]-5-methyl-N-methylsulfonyl-thiazole-4-carboxamide] was run?
**A.** The EC50 was 501 nM.

**Q.** Which EC50 does the source give for Cc1cc(F)cc(CN(c2ccc(C#N)cc2)c2nc(C(=O)NS(C)(=O)=O)c(C)s2)c1 [Compound 98, 2-[4-cyano-N-[(3-fluoro-5-methyl-phenyl)methyl]anilino]-5-methyl-N-methylsulfonyl-thiazole-4-carboxamide] here?
**A.** Its EC50 is 39.8 nM.

**Q.** With Cc1sc(N(CCC(F)(F)F)Cc2ccccc2)nc1C(=O)NS(C)(=O)=O [Compound 711, 2-[benzyl(3,3,3-trifluoropropyl)amino]-5-methyl-N-methylsulfonyl-thiazole-4-carboxamide] as the compound, how does the EC50 read?
**A.** The EC50 was > 2000 nM.

**Q.** Which EC50 does the source give for Cc1sc(N(Cc2ccccc2)c2ccc(F)c(F)c2)nc1C(=O)NS(C)(=O)=O [Compound 48, 2-(N-benzyl-3,4-difluoro-anilino)-5-methyl-N-methylsulfonyl-thiazole-4-carboxamide] here?
**A.** The EC50 was 398 nM.

**Q.** Cc1sc(N(Cc2cccc(OCCO)c2)c2ccc(C#N)cc2)nc1C(=O)NS(C)(=O)=O [Compound 587, 2-[4-cyano-N-[[3-(2-hydroxyethoxy)phenyl]methyl]anilino]-5-methyl-N-methylsulfonyl-thiazole-4-carboxamide] was tested. Which EC50 did it give?
**A.** The EC50 was 501 nM.

**Q.** With Cc1nc(CN(c2ccc(C#N)cc2)c2nc(C(=O)NS(C)(=O)=O)c(C)o2)cs1 [Compound 619, 2-[4-cyano-N-[(2-methylthiazol-4-yl)methyl]anilino]-5-methyl-N-methylsulfonyl-oxazole-4-carboxamide] as the compound, how does the EC50 read?
**A.** The EC50 was > 2000 nM.

**Q.** With Cc1sc(N(Cc2ccccc2)c2cccc(CO)c2)nc1C(=O)NS(C)(=O)=O [Example 229, 2-[N-benzyl-3-(hydroxymethyl)anilino]-5-methyl-N-methylsulfonyl-thiazole-4-carboxamide] as the compound, how does the EC50 read?
**A.** Its EC50 is > 2000 nM.

**Q.** How did the EC50 turn out when Cc1sc(N(CCc2cccnc2)c2ccc(C#N)cc2)nc1C(=O)NS(C)(=O)=O [Compound 134, 2-[4-cyano-N-[2-(3-pyridyl)ethyl]anilino]-5-methyl-N-methylsulfonyl-thiazole-4-carboxamide] was run?
**A.** Its EC50 is > 2000 nM.

**Q.** For Cc1sc(N(CCn2cccn2)Cc2ccccc2)nc1C(=O)NS(C)(=O)=O [Compound 688, 2-[benzyl(2-pyrazol-1-ylethyl)amino]-5-methyl-N-methylsulfonyl-thiazole-4-carboxamide], which EC50 is on record?
**A.** The EC50 was > 2000 nM.

**Q.** COCCOc1cccc(N(Cc2ccccc2)c2nc(C(=O)NS(C)(=O)=O)c(C)s2)c1 [Compound 398, 2-[N-benzyl-3-(2-methoxyethoxy)anilino]-5-methyl-N-methylsulfonyl-thiazole-4-carboxamide] was tested. Which EC50 did it give?
**A.** The EC50 was > 2000 nM.

**Q.** Which EC50 does the source give for Cc1sc(N(Cc2ccccc2)Cc2ccccc2)nc1C(=O)NS(C)(=O)=O [Example 288, 2-(dibenzylamino)-5-methyl-N-methylsulfonyl-thiazole-4-carboxamide] here?
**A.** Its EC50 is > 2000 nM.

**Q.** With Cc1sc(N(Cc2ccccc2)c2ccc(OCC(=O)O)cc2)nc1C(=O)NS(C)(=O)=O [Example 212, 2-[4-[benzyl-[5-methyl-4-(methylsulfonylcarbamoyl)thiazol-2-yl]amino]phenoxy]acetic acid] as the compound, how does the EC50 read?
**A.** The EC50 was > 2000 nM.
